The text below walks through data of patent publication US8314255B2, “Use of phthalimide and/or sulphonamide derivatives in the treatment of diseases which require reducing the TNF- α levels and an exogenous source of nitric oxide, phthalimide derivatives, sulphonamide derivatives, and a method for obtaining a sulphonamide derivative” (priority 2007, dated 2012).

For data set [1], the system named is Salmonella typhimurium TA100. Put plainly: AMES test, mutagenic evaluation in Salmonella typhimurium TA100 strain with/without metabolic activation (S9). In kind it is cell-based. As to the method:
The procedure was firstly developed by (MARON, D. M. and AMES, B. N. Mut. Res. v. 113, pp. 173-215, 1983)
For this assay, Salmonella typhimurium TA100 and TA102 strains from the mutagenicity laboratory of the “Faculdade de Ciências Farmacêuticas—UNESP Araraquara” were used. Such strains have the following characteristics: (AMES, 1983)
The positive controls are mutagenic compounds specific for each strain and test condition, with 25 μL/plate of sodium azide (1.25 μg/plate) and 100 μL of mitomycin (0.5 μg/plate) being the controls for TA100 and TA102, respectively, in the absence of metabolic activation. For assays with metabolic activation, the positive control for TA100 is 50 μL 2-antramine (1.25 μg/plate) and for TA102 it is 50 μL 2-aminofluorene (1.25 μg/plate).
The preincubation method was used.
In laminar flow, Salmonella typhimurium (TA100 and TA 102) strains were inoculated individually with a platinum loop, in the respective nutrient broths and maintained at 37° C., under constant stirring (160 rpm) during 14 hours, in order to achieve a density of 1 to 2×10^9 bacteria/mL.
Different concentrations of the compounds were added into 100 μL of 0.2M phosphate buffer pH 7.4 (or 500 μL of the mixture S9 in metabolic activation assays) and incubated for 20-30 minutes at 37° C. Solutions containing the compounds had DMSO as the solvent. Thereafter, 2 mL of top agar supplemented with traces of histidine and biotin was added, homogenized and plated in glycosylated minimum medium. After solidification of the top agar, the plates were incubated for 48 hours at a 37° C. Then, the counting of the number of revertant colonies per plate was performed. All tested concentrations, positive and negative controls were run in triplicate.
After 48 hours, the revertant colonies were counted manually, and the protoCOL Colony Counter Version 3.15.630 (1998-2001) SYNBIOSIS LTD system was used for the positive control.
The final data obtained from the assay was analyzed using the statistical software Salanal (Salmonella Assay Analysis) version 1.0 from the Research Triangle Institute, RTP, North Carolina, USA. Such software allows the dose-response effect to be evaluated by means of analysis of variance (ANOVA-test F) computations between the measurement of the number of revertants at the different tested concentrations (doses) and the negative control, followed by a linear regression. The software model chosen for analyzing the data was Bernstein's (BERNSTEIN, L. et al. Mutat. Res. v. 97, p. 267-281, 1982). The slope of the straight line from the linear portion of the dose-response curve is also provided by this software and corresponds to the number of revertants induced per measurement unit of the analyzed sample.
From the results, the mutagenicity ratio (MR) was computed for each analyzed dose from each compound. MR is given by the following equation:
MR=average number of revertants per test plate (spontaneous+induced revertants) […] average number of revertants per plate of the negative control (spontaneous revertants)
The spontaneous growing means that the number of revertants which developed on the plate, regardless of being induced or not, wherein values higher or equal to 2 are considered as a positive response (VALENT, G. V. et al. Env. Toxicol. Water Quality. v. 8, p. 371-381, 1993).
The mutagenicity test with metabolic activation system was performed with a microsomal fraction S9 (S9 mix) prepared from a liver homogenizate from Sprague Dawley rats, previously treated with Aroclor 1254, acquired in the freeze-dried form.
The procedure for this assay is the same, however, instead of the buffer, 500 μL of the S9 mixture should be added.
The S9 mixture has a viability of 4 hours from preparation when put on ice. The plates are then incubated for 48 hours at 37° C. After the required time has elapsed, the counting of the revertant colonies was carried out. All tested concentrations, positive and negative controls were run in triplicate.

Data set [2] deals with abdominal writhing induced by acetic acid. Description: Abdominal writhing assay induced by acetic acid. In kind it is in vivo. The note with it: oral, mice, acetic acid 0.1N i.p. after 1 hour, writhings counted during 20 minutes. As to the method: In order to evaluate the peripheral analgesic activity of the compounds, an abdominal writhing assay induced by acetic acid (Table 6) was carried out. In this assay, we could infer that compound ID has an important analgesic activity, inhibiting abdominal writhing by 66%. […] The analgesic activity may be related to the ability of these compounds to inhibit the cytokine TNFα, since it is known that this would be one of the mechanisms that explain the analgesia of molecules such as thalidomide.
The antinociceptive profile was evaluated through the abdominal writhing assay induced by acetic acid in mice. In this assay, Swiss mice from both genders were used, weighing from 21 to 28 grams, fasted for a time period of about 8 hours. The test substance was administered orally and had, as a carrier, 5% gum arabic. After 1 hour, the administration of acetic acid 0.1N (0.1 mL/10 g weight) was performed in the peritoneal cavity of the animals. Ten minutes after the injection of acetic acid, writhings were counted during 20 minutes.
(An intraperitoneal irritant provokes the stretching counted in writhing tests.)

Several values for one entry are separate records, joined by “and”; a condition that tells them apart may be missing. Identical values can stand only once.

In the case of `O=C1c2ccccc2C(=O)N1c1ccc(CO[N+](=O)[O-])cc1` [ID, 4-(1,3-dioxo-1,3-dihydro-2H-isoindol-2-yl)benzyl nitrate], the “mutagenicity ratio (MR)” value in data set [1] (TA 100, +S9, 0.224 μmol/plate) stood at 1.21; in data set [1] (TA 100, +S9, 0.488 μmol/plate) it was 1.42; in data set [1] (TA 100, +S9, 0.896 μmol/plate) it was 1.67; in data set [1] (TA 100, +S9, 1.8 μmol/plate) it was 1.49; in data set [1] (TA 100, +S9, 3.58 μmol/plate) it was 2.03; in data set [1] (TA 100, −S9, 0.224 μmol/plate), 1.27. Further, the “mutagenicity ratio (MR)” value in data set [1] (TA 100, −S9, 0.488 μmol/plate) was found to be 1.33; in data set [1] (TA 100, −S9, 0.896 μmol/plate), 1.29; in data set [1] (TA 100, −S9, 1.8 μmol/plate), 1.18; in data set [1] (TA 100, −S9, 3.58 μmol/plate) it was 1.94. For the same compound, the “number of revertants per plate” value in data set [1] (TA 100, +S9, 0.224 μmol/plate) was determined as 157 ± 13 revertants/plate; in data set [1] (TA 100, +S9, 0.488 μmol/plate), 184.7 ± 16 revertants/plate; in data set [1] (TA 100, +S9, 0.896 μmol/plate), 216.7 ± 18 revertants/plate; in data set [1] (TA 100, +S9, 1.8 μmol/plate), 192.7 ± 16 revertants/plate; in data set [1] (TA 100, +S9, 3.58 μmol/plate), 263 ± 12.3 revertants/plate; in data set [1] (TA 100, −S9, 0.224 μmol/plate) it was 228 ± 18 revertants/plate. Moreover, the “number of revertants per plate” value is recorded as 239 ± 11.5 revertants/plate in data set [1] (TA 100, −S9, 0.488 μmol/plate); 231 ± 20.2 revertants/plate in data set [1] (TA 100, −S9, 0.896 μmol/plate); 212.3 ± 17 revertants/plate in data set [1] (TA 100, −S9, 1.8 μmol/plate); 349 ± 5.6 revertants/plate in data set [1] (TA 100, −S9, 3.58 μmol/plate). Also, in data set [2], the “Average (abdominal writhings)” value is 16.2. For the same compound, the “Inhibition % (abdominal writhing)” value in data set [2] is 66% and 66.03%.
